Tests used:
[1] = tested on: nitrilase, a preferred enzyme on which initial experiments were conducted (particularly preferred enzyme: Rhodococcus rhodochrous NCIMB 40757); assay: Km, Ki of preferred nitrilase in whole cell form (Michaelis-Menten kinetics); type: biochemical
Procedure: The enzyme must have Km for (meth) acrylonitrile, that is whichever of acrylonitrile and (meth) acrylonitrile is being converted, below 500 μm and Ki for ammonium acrylate or ammonium (meth) acrylate, whichever is being produced, above 100,000 μM. In this specification Km and Ki are measured under conditions in which the enzyme obeys Michaelis-Menten kinetics, in particular at pH 7. A preferred measurement technique uses enzyme in whole cell form in 50 mM sodium phosphate buffer at pH 7 and 30° C. and using concentrations of acrylonitrile from 0.01 to 0.5 mM (for Km) and using 1.2 M ammonium acrylate and 0.079 to 0.554 mM acrylonitrile (for Ki).

[2] = tested on: nitrilase enzyme discussed in Biotech and Appl Biochem 11, 581 to 601 (1989); conditions: literature value; read-out: Km for acrylonitrile; cited from earlier work
[3] = tested on: R rhodochrous K22 nitrilase; conditions: literature value; read-out: Km for acrylonitrile; cited from earlier work

In the case of `C=CC#N` [acrylonitrile], the Km ([1]; whole cell form, preferred technique: 50 mM sodium phosphate buffer, pH 7, 30° C., acrylonitrile 0.01 to 0.5 mM) is listed as 30.6 µM, the Km [2] is listed as 17000 µM and the Km [3] is listed as 1140 µM.

For `C=CC(=O)O` [ammonium acrylate], the “ratio Ki/Km” value ([1]; Ki for ammonium acrylate / Km for acrylonitrile) was “greater than 10,000”.

— patent US6361981B1, “Production of ammonium acrylate” (Ciba Specialty Chemicals Water Treatments Limited, priority 1995, dated 2002)
